These compounds were tested against T1, intracellular kinase domain of human IGF-1R (GST fusion protein) (Homo sapiens, UniProt P08069) (assay: In vitro IGF-1R kinase assay (HTRF)). Conditions: ATP 20 μM, IGFRK 0.25 nM.
T1 construct: IGFRK and IRK enzyme used for the assay was intracellular kinase domain of human IGF-1R; GST; made in house
Type: biochemical
Procedure: The in vitro kinase assays using IGF-1R and IR kinase GST fusion proteins were conducted using a homogeneous time-resolved fluorescence (HTRF) format. Kinase reactions were carried out in a 384-well plate format in a final volume of 20 μL. The standard enzyme reaction buffer consisted of 50 mM Tris HCL (pH: 7.4), 1 mM EGTA, 10 mM MgCl2, 2 mM DTT, 0.01% Tween-20, IGF-1R/IR kinase enzyme, poly GT peptide substrate (Perkin Elmer [Ulight Glu-Tyr (4:1)]n) and ATP [concentration equivalent to Kmapp] […] Briefly, 2.5 μL enzyme and 2.5 μL inhibitor was preincubated for 10 minutes at 23° C. followed by the addition of 2.5 μL of poly GT substrate (final concentration of 50 nM). Reaction was initiated with the addition of 2.5 μL of ATP (final concentration of 20 μM for IGF-1R assay and 10 μM for IR assay). After 1 hour incubation at 23° C., the kinase reaction was stopped with the addition of 5 μL EDTA (final concentration of 10 mM in 20 μL). Europium cryptate—labeled antiphosphotyrosine antibody PY20 (5 μL) was added (final concentration of 2 nM) and the mixture was allowed to equilibrate for 1 hour at 23° C. followed by reading the plate in an Envision plate reader.
The intensity of light emission at 665 nm was directly proportional to the level of substrate phosphorylation. The IC50 values for inhibitors were determined by a four-parameter sigmoidal curve fit (Sigma plot or Graph pad).
IGFRK and IRK enzyme used for the assay was intracellular kinase domain of human IGF-1R and human IR cloned and expressed as GST fusion proteins using the baculovirus expression system and purified using glutathione—Sepharose column.

T1 sequence (P08069 999-1274 limits assumed): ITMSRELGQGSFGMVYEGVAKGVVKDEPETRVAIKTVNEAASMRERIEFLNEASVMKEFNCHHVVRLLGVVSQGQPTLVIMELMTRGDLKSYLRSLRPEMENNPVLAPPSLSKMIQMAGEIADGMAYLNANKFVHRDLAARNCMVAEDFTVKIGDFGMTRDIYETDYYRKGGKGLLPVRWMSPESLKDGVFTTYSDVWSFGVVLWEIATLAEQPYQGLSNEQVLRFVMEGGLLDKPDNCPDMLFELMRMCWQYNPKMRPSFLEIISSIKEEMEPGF

Question: With `COc1ccccc1-c1ccc(OC[C@@H]2CN(S(=O)(=O)c3c(C(N)=O)[nH]c4ccc(Cl)cc34)CCO2)cc1` [Compound 36, (S)-5-chloro-3-((2-(((2′-methoxy-[1,1′-biphenyl]-4-yl)oxy)methyl)morpholino)sulfonyl)-1H-indole-2-carboxamide] as the compound, how does the IC50 read?
Answer: 81 nM

Question: How did the IC50 turn out when `COc1ccc(-c2ccc(OC[C@@H]3CN(S(=O)(=O)c4c(C(N)=O)[nH]c5ccc(Cl)cc45)CCO3)cc2)cn1` [Compound 37, (S)-5-chloro-3-((2-((4-(6-methoxypyridin-3-yl)phenoxy)methyl)morpholino)sulfonyl)-1H-indole-2-carboxamide] was run?
Answer: 166 nM

Question: `NC(=O)c1[nH]c2ccc(Cl)cc2c1S(=O)(=O)N1CCO[C@H](COc2ccc(-c3ccccc3C(F)(F)F)cc2)C1` [Compound 38, (S)-5-chloro-3-((2-(((2′-(trifluoromethyl)-[1,1′-biphenyl]-4-yl)oxy)methyl)morpholino)sulfonyl)-1H-indole-2-carboxamide] was tested. Which IC50 did it give?
Answer: 113 nM

Question: With `COc1ccc(-c2ccc(OC[C@@H]3CN(S(=O)(=O)c4c(C(N)=O)[nH]c5ccc(Cl)cc45)CCO3)cc2)cc1` [Compound 39, (S)-5-chloro-3-((2-(((4′-methoxy-[1,1′-biphenyl]-4-yl)oxy)methyl)morpholino)sulfonyl)-1H-indole-2-carboxamide] as the compound, how does the IC50 read?
Answer: 206 nM

Question: With `NC(=O)c1[nH]c2ccc(Cl)cc2c1S(=O)(=O)N1CCO[C@H](COc2ccc(-c3ccccc3OC(F)(F)F)cc2)C1` [Compound 40, (S)-5-chloro-3-((2-(((2′-(trifluoromethoxy)-[1,1′-biphenyl]-4-yl)oxy)methyl)morpholino)sulfonyl)-1H-indole-2-carboxamide] as the compound, how does the IC50 read?
Answer: 361 nM

Question: `Cc1ccccc1-c1ccc(OC[C@@H]2CN(S(=O)(=O)c3c(C(N)=O)[nH]c4ccc(Cl)cc34)CCO2)cc1` [Compound 41, (S)-5-chloro-3-((2-(((2′-methyl-[1,1′-biphenyl]-4-yl)oxy)methyl)morpholino)sulfonyl)-1H-indole-2-carboxamide] was tested. Which IC50 did it give?
Answer: 184 nM

Question: How did the IC50 turn out when `NC(=O)c1[nH]c2ccc(Cl)cc2c1S(=O)(=O)N1CCO[C@H](COc2ccc(-c3ccccc3F)cc2)C1` [Compound 42, (S)-5-chloro-3-((2-(((2′-fluoro-[1,1′-biphenyl]-4-yl)oxy)methyl)morpholino)sulfonyl)-1H-indole-2-carboxamide] was run?
Answer: 119 nM

Question: For `COc1ccccc1-c1ccc(OC[C@@H]2CN(S(=O)(=O)c3c(C(N)=O)[nH]c4ccc(Cl)cc34)CCO2)cc1` [Compound 43, (S)-5-chloro-3-((2-(((2′-methoxy-[1,1′-biphenyl]-4-yl)oxy)methyl)morpholino)sulfonyl)-1H-indole-2-carboxamide], which IC50 is on record?
Answer: > 100 nM

Question: Which IC50 does the source give for `COc1ncccc1-c1ccc(OC[C@@H]2CN(S(=O)(=O)c3c(C(N)=O)[nH]c4ccc(Cl)cc34)CCO2)cc1` [Compound 44, (S)-5-chloro-3-((2-((4-(2-methoxypyridin-3-yl)phenoxy)methyl)morpholino)sulfonyl)-1H-indole-2-carboxamide] here?
Answer: 46.4 nM

Question: How did the IC50 turn out when `NC(=O)c1[nH]c2ccc(Cl)cc2c1S(=O)(=O)N1CCO[C@H](COc2ccc(-c3ccnc(F)c3)cc2)C1` [Compound 45, (S)-5-chloro-3-((2-((4-(2-fluoropyridin-4-yl)phenoxy)methyl)morpholino)sulfonyl)-1H-indole-2-carboxamide] was run?
Answer: 12.1 nM

Question: `NC(=O)c1[nH]c2ccc(Cl)cc2c1S(=O)(=O)N1CCO[C@H](COc2ccc(-c3ccc(F)nc3)cc2)C1` [Compound 46, (S)-5-chloro-3-((2-((4-(6-fluoropyridin-3-yl)phenoxy)methyl)morpholino)sulfonyl)-1H-indole-2-carboxamide] was tested. Which IC50 did it give?
Answer: 12.8 nM

Question: With `COc1cc(-c2ccc(OC[C@@H]3CN(S(=O)(=O)c4c(C(N)=O)[nH]c5ccc(Cl)cc45)CCO3)cc2)ccn1` [Compound 47, (S)-5-chloro-3-((2-((4-(2-methoxypyridin-4-yl)phenoxy)methyl)morpholino)sulfonyl)-1H-indole-2-carboxamide] as the compound, how does the IC50 read?
Answer: < 100 nM

Question: With `NC(=O)c1[nH]c2ccc(Cl)cc2c1S(=O)(=O)N1CCO[C@H](COc2ccc(-c3cncnc3)cc2)C1` [Compound 48, (S)-5-chloro-3-((2-((4-(pyrimidin-5-yl)phenoxy)methyl)morpholino)sulfonyl)-1H-indole-2-carboxamide] as the compound, how does the IC50 read?
Answer: 4 nM

Question: How did the IC50 turn out when `NC(=O)c1[nH]c2ccc(Cl)cc2c1S(=O)(=O)N1CCO[C@H](COc2ccc(-c3cccnc3F)cc2)C1` [Compound 49, (S)-5-chloro-3-((2-((4-(2-fluoropyridin-3-yl)phenoxy)methyl)morpholino)sulfonyl)-1H-indole-2-carboxamide] was run?
Answer: 5 nM

Question: For `Cc1ncccc1-c1ccc(OC[C@@H]2CN(S(=O)(=O)c3c(C(N)=O)[nH]c4ccc(Cl)cc34)CCO2)cc1` [Compound 50, (S)-5-chloro-3-((2-((4-(2-methylpyridin-3-yl)phenoxy)methyl)morpholino)sulfonyl)-1H-indole-2-carboxamide], which IC50 is on record?
Answer: 3.2 nM

Question: For `Cc1ccc(-c2ccc(OC[C@@H]3CN(S(=O)(=O)c4c(C(N)=O)[nH]c5ccc(Cl)cc45)CCO3)cc2)cn1` [Compound 52, (S)-5-chloro-3-((2-((4-(6-methylpyridin-3-yl)phenoxy)methyl)morpholino)sulfonyl)-1H-indole-2-carboxamide], which IC50 is on record?
Answer: > 100 nM

Question: For `NC(=O)c1[nH]c2ccc(Cl)cc2c1S(=O)(=O)N1CCO[C@H](COc2ccccc2-c2ccccc2)C1` [Compound 54, (S)-3-((2-(([1,1′-biphenyl]-2-yloxy)methyl)morpholino)sulfonyl)-5-chloro-1H-indole-2-carboxamide], which IC50 is on record?
Answer: > 1000 nM

Question: With `NC(=O)c1[nH]c2ccc(Cl)cc2c1S(=O)(=O)N1CCO[C@H](COc2ccccc2-c2cccnc2)C1` [Compound 55, (S)-5-chloro-3-((2-((2-(pyridin-3-yl)phenoxy)methyl)morpholino)sulfonyl)-1H-indole-2-carboxamide] as the compound, how does the IC50 read?
Answer: > 1000 nM

Question: Which IC50 does the source give for `NC(=O)c1[nH]c2ccc(Cl)cc2c1S(=O)(=O)N1CCO[C@H](COc2ccccc2-c2ccncc2)C1` [Compound 56, (S)-5-chloro-3-((2-((2-(pyridin-4-yl)phenoxy)methyl)morpholino)sulfonyl)-1H-indole-2-carboxamide] here?
Answer: > 1000 nM

Question: Which IC50 does the source give for `NC(=O)c1[nH]c2ccc(Cl)cc2c1S(=O)(=O)N1CCO[C@H](COc2ccccc2-c2cccnc2F)C1` [Compound 57, (S)-5-chloro-3-((2-((2-(2-fluoropyridin-3-yl)phenoxy)methyl)morpholino)sulfonyl)-1H-indole-2-carboxamide] here?
Answer: > 1000 nM

Question: `COc1ccccc1-c1ccccc1OC[C@@H]1CN(S(=O)(=O)c2c(C(N)=O)[nH]c3ccc(Cl)cc23)CCO1` [Compound 58, (S)-5-chloro-3-((2-(((2′-methoxy-[1,1′-biphenyl]-2-yl)oxy)methyl)morpholino)sulfonyl)-1H-indole-2-carboxamide] was tested. Which IC50 did it give?
Answer: > 1000 nM

Question: With `NC(=O)c1[nH]c2ccc(Cl)cc2c1S(=O)(=O)N1CCO[C@H](COc2ccccc2-c2ccc(F)nc2)C1` [Compound 59, (S)-5-chloro-3-((2-((2-(6-fluoropyridin-3-yl)phenoxy)methyl)morpholino)sulfonyl)-1H-indole-2-carboxamide] as the compound, how does the IC50 read?
Answer: > 1000 nM

Question: With `NC(=O)c1[nH]c2ccc(Cl)cc2c1S(=O)(=O)N1CCO[C@H](COc2ccccc2-c2cncnc2)C1` [Compound 60, (S)-5-chloro-3-((2-((2-(pyrimidin-5-yl)phenoxy)methyl)morpholino)sulfonyl)-1H-indole-2-carboxamide] as the compound, how does the IC50 read?
Answer: > 1000 nM

Question: For `COc1ccc(-c2ccccc2OC[C@@H]2CN(S(=O)(=O)c3c(C(N)=O)[nH]c4ccc(Cl)cc34)CCO2)cn1` [Compound 61, (S)-5-chloro-3-((2-((2-(6-methoxypyridin-3-yl)phenoxy)methyl)morpholino)sulfonyl)-1H-indole-2-carboxamide], which IC50 is on record?
Answer: > 1000 nM

Question: `NC(=O)c1[nH]c2ccc(Cl)cc2c1S(=O)(=O)N1CCO[C@H](COc2ccccc2-c2ccccc2F)C1` [Compound 62, (S)-5-chloro-3-((2-(((2′-fluoro-[1,1′-biphenyl]-2-yl)oxy)methyl)morpholino)sulfonyl)-1H-indole-2-carboxamide] was tested. Which IC50 did it give?
Answer: > 1000 nM

Question: `Cc1ncccc1-c1ccccc1OC[C@@H]1CN(S(=O)(=O)c2c(C(N)=O)[nH]c3ccc(Cl)cc23)CCO1` [Compound 63, (S)-5-chloro-3-((2-((2-(2-methylpyridin-3-yl)phenoxy)methyl)morpholino)sulfonyl)-1H-indole-2-carboxamide] was tested. Which IC50 did it give?
Answer: > 1000 nM

Question: Which IC50 does the source give for `NC(=O)c1[nH]c2ccc(Cl)cc2c1S(=O)(=O)N1CCO[C@H](COc2ccccc2-c2cccc(F)c2)C1` [Compound 64, (S)-5-chloro-3-((2-(((3′-fluoro-[1,1′-biphenyl]-2-yl)oxy)methyl)morpholino)sulfonyl)-1H-indole-2-carboxamide] here?
Answer: > 1000 nM

Question: With `Cc1cc(OC[C@@H]2CN(S(=O)(=O)c3c(C(N)=O)[nH]c4ccc(Cl)cc34)CCO2)ccc1-c1cccnc1` [Compound 66, (S)-5-chloro-3-((2-((3-methyl-4-(pyridin-3-yl)phenoxy)methyl)morpholino)sulfonyl)-1H-indole-2-carboxamide] as the compound, how does the IC50 read?
Answer: 18.7 nM

From patent US20150119394A1, “Insulin-Like Growth Factor-1 Receptor Inhibitors” (Merck Sharp & Dohme Corp., priority 2012, published 2015)
